Test results reported in PubChem BioAssay (NCI).
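Results reflect a 48-hour exposure of cells in 96-well plates to compound at five concentrations. GI50 marks 50% less growth. Definition used: TGI = concentration required for complete inhibition of growth.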

What was measured:
Assay in all cases: NCI anticancer screen, dose series, 48 h
UACC-257 melanoma = system: UACC-257 melanoma
CAKI-1 renal = system: CAKI-1 renal
HCT-116 colon = system: HCT-116 colon
NCI/ADR-RES ovarian = system: NCI/ADR-RES ovarian
SK-MEL-5 melanoma = system: SK-MEL-5 melanoma
HS 578T breast = system: HS 578T breast
M14 melanoma = system: M14 melanoma
HT29 colon = system: HT29 colon
OVCAR-3 ovarian = system: OVCAR-3 ovarian
SNB-19 CNS = system: SNB-19 CNS
RPMI-8226 leukemia = system: RPMI-8226 leukemia
SR leukemia = system: SR leukemia
MCF7 breast = system: MCF7 breast
TK-10 renal = system: TK-10 renal
A498 renal = system: A498 renal
HOP-62 NSCLC = system: HOP-62 NSCLC
MDA-N = system: MDA-N
NCI-H460 lung = system: NCI-H460 lung
SNB-75 CNS = system: SNB-75 CNS
DU-145 prostate = system: DU-145 prostate
NCI-H226 lung = system: NCI-H226 lung
MOLT-4 leukemia = system: MOLT-4 leukemia
SK-OV-3 ovarian = system: SK-OV-3 ovarian
SK-MEL-28 melanoma = system: SK-MEL-28 melanoma
MALME-3M melanoma = system: MALME-3M melanoma
A549 NSCLC = system: A549 NSCLC
MDA-MB-435 = system: MDA-MB-435
SN12C renal = system: SN12C renal
UACC-62 melanoma = system: UACC-62 melanoma
IGROV1 ovarian = system: IGROV1 ovarian
OVCAR-5 ovarian = system: OVCAR-5 ovarian
LOX IMVI melanoma = system: LOX IMVI melanoma
SK-MEL-2 melanoma = system: SK-MEL-2 melanoma
KM12 colon = system: KM12 colon
786-0 renal = system: 786-0 renal
COLO 205 colon = system: COLO 205 colon
SF-295 CNS = system: SF-295 CNS
HCC-2998 colon = system: HCC-2998 colon
SW-620 colon = system: SW-620 colon
ACHN renal = system: ACHN renal
U251 CNS = system: U251 CNS
MDA-MB-231 breast = system: MDA-MB-231 breast
K-562 leukemia = system: K-562 leukemia
NCI-H522 lung = system: NCI-H522 lung
OVCAR-4 ovarian = system: OVCAR-4 ovarian
UO-31 renal = system: UO-31 renal
CCRF-CEM leukemia = system: CCRF-CEM leukemia
EKVX NSCLC = system: EKVX NSCLC
SF-539 CNS = system: SF-539 CNS
OVCAR-8 ovarian = system: OVCAR-8 ovarian
HL-60(TB) leukemia = system: HL-60(TB) leukemia
HOP-92 NSCLC = system: HOP-92 NSCLC
HCT-15 colon = system: HCT-15 colon
BT-549 breast = system: BT-549 breast
T-47D breast = system: T-47D breast
NCI-H23 lung = system: NCI-H23 lung
SF-268 CNS = system: SF-268 CNS
PC-3 prostate = system: PC-3 prostate

CCCCCC[n+]1noc(N)c1-c1ccc(-c2c(N)on[n+]2CCCCCC)cc1
GI50 (UACC-257 melanoma): 1.73 µg/mL | TGI (UACC-257 melanoma): 3.34 µg/mL | GI50 (CAKI-1 renal): 2.18 µg/mL | TGI (CAKI-1 renal): 5.22 µg/mL | GI50 (HCT-116 colon): 3.97 µg/mL | TGI (HCT-116 colon): 14.3 µg/mL | GI50 (NCI/ADR-RES ovarian): 12.5 µg/mL | TGI (NCI/ADR-RES ovarian): 25.6 µg/mL | GI50 (SK-MEL-5 melanoma): 1.66 µg/mL | TGI (SK-MEL-5 melanoma): 3.04 µg/mL | GI50 (HS 578T breast): 2.13 µg/mL | TGI (HS 578T breast): 5.06 µg/mL | GI50 (M14 melanoma): 1.9 µg/mL | TGI (M14 melanoma): 3.43 µg/mL | GI50 (HT29 colon): 1.85 µg/mL | TGI (HT29 colon): 4.01 µg/mL | GI50 (OVCAR-3 ovarian): 12.7 µg/mL | TGI (OVCAR-3 ovarian): 26.1 µg/mL | GI50 (SNB-19 CNS): 9.62 µg/mL | TGI (SNB-19 CNS): 22.8 µg/mL | GI50 (RPMI-8226 leukemia): 1.98 µg/mL | TGI (RPMI-8226 leukemia): 4.71 µg/mL | GI50 (SR leukemia): 1.89 µg/mL | TGI (SR leukemia): 4.87 µg/mL | GI50 (MCF7 breast): 1.97 µg/mL | TGI (MCF7 breast): 4.1 µg/mL | GI50 (TK-10 renal): 2.81 µg/mL | TGI (TK-10 renal): 8.51 µg/mL | GI50 (A498 renal): 6.03 µg/mL | TGI (A498 renal): 16 µg/mL | GI50 (HOP-62 NSCLC): 7.64 µg/mL | TGI (HOP-62 NSCLC): 20.6 µg/mL | GI50 (MDA-N): 1.78 µg/mL | TGI (MDA-N): 3.48 µg/mL | GI50 (NCI-H460 lung): 2.03 µg/mL | TGI (NCI-H460 lung): 4.7 µg/mL | GI50 (SNB-75 CNS): 3.41 µg/mL | TGI (SNB-75 CNS): 11.3 µg/mL | GI50 (DU-145 prostate): 9.82 µg/mL | TGI (DU-145 prostate): 24.4 µg/mL | GI50 (NCI-H226 lung): 14.2 µg/mL | TGI (NCI-H226 lung): 28.2 µg/mL | GI50 (MOLT-4 leukemia): 2.36 µg/mL | TGI (MOLT-4 leukemia): 7.33 µg/mL | GI50 (SK-OV-3 ovarian): 3.37 µg/mL | TGI (SK-OV-3 ovarian): 11 µg/mL | GI50 (SK-MEL-28 melanoma): 1.69 µg/mL | TGI (SK-MEL-28 melanoma): 3.13 µg/mL | GI50 (MALME-3M melanoma): 1.81 µg/mL | TGI (MALME-3M melanoma): 3.33 µg/mL | GI50 (A549 NSCLC): 5.25 µg/mL | TGI (A549 NSCLC): 13.9 µg/mL | GI50 (MDA-MB-435): 1.76 µg/mL | TGI (MDA-MB-435): 3.23 µg/mL | GI50 (SN12C renal): 6.2 µg/mL | TGI (SN12C renal): 17.3 µg/mL | GI50 (UACC-62 melanoma): 1.94 µg/mL | TGI (UACC-62 melanoma): 3.51 µg/mL | GI50 (IGROV1 ovarian): 6.74 µg/mL | TGI (IGROV1 ovarian): 20.4 µg/mL | GI50 (OVCAR-5 ovarian): 5.54 µg/mL | TGI (OVCAR-5 ovarian): 14.6 µg/mL | GI50 (LOX IMVI melanoma): 1.95 µg/mL | TGI (LOX IMVI melanoma): 4.21 µg/mL | GI50 (SK-MEL-2 melanoma): 1.61 µg/mL | TGI (SK-MEL-2 melanoma): 3.1 µg/mL | GI50 (KM12 colon): 3.97 µg/mL | TGI (KM12 colon): 14.6 µg/mL | GI50 (786-0 renal): 1.61 µg/mL | TGI (786-0 renal): 3.32 µg/mL | GI50 (COLO 205 colon): 1.66 µg/mL | TGI (COLO 205 colon): 3.58 µg/mL | GI50 (SF-295 CNS): 1.88 µg/mL | TGI (SF-295 CNS): 3.73 µg/mL | GI50 (HCC-2998 colon): 1.45 µg/mL | TGI (HCC-2998 colon): 2.79 µg/mL | GI50 (SW-620 colon): 2.32 µg/mL | TGI (SW-620 colon): 6.14 µg/mL | GI50 (ACHN renal): 7.74 µg/mL | TGI (ACHN renal): 20.7 µg/mL | GI50 (U251 CNS): 1.71 µg/mL | TGI (U251 CNS): 3.47 µg/mL | GI50 (MDA-MB-231 breast): 3.3 µg/mL | TGI (MDA-MB-231 breast): 9.87 µg/mL | GI50 (K-562 leukemia): 1.79 µg/mL | TGI (K-562 leukemia): 3.8 µg/mL | GI50 (NCI-H522 lung): 1.99 µg/mL | TGI (NCI-H522 lung): 3.69 µg/mL | GI50 (OVCAR-4 ovarian): 2.62 µg/mL | TGI (OVCAR-4 ovarian): 14.9 µg/mL | GI50 (UO-31 renal): 1.89 µg/mL | TGI (UO-31 renal): 4.46 µg/mL | GI50 (CCRF-CEM leukemia): 5.09 µg/mL | TGI (CCRF-CEM leukemia): 10.1 µg/mL | GI50 (EKVX NSCLC): 7.71 µg/mL | TGI (EKVX NSCLC): 23.2 µg/mL | GI50 (SF-539 CNS): 1.77 µg/mL | TGI (SF-539 CNS): 3.42 µg/mL | GI50 (OVCAR-8 ovarian): 2.6 µg/mL | TGI (OVCAR-8 ovarian): 9.53 µg/mL | GI50 (HL-60(TB) leukemia): 1.61 µg/mL | TGI (HL-60(TB) leukemia): 3.07 µg/mL | GI50 (HOP-92 NSCLC): 1.09 µg/mL | TGI (HOP-92 NSCLC): 5.91 µg/mL | GI50 (HCT-15 colon): 2.59 µg/mL | TGI (HCT-15 colon): 8.72 µg/mL | GI50 (BT-549 breast): 3.83 µg/mL | TGI (BT-549 breast): 14 µg/mL | GI50 (T-47D breast): 2.49 µg/mL | TGI (T-47D breast): 6.28 µg/mL | GI50 (NCI-H23 lung): 14.1 µg/mL | TGI (NCI-H23 lung): 27.9 µg/mL | GI50 (SF-268 CNS): 7.82 µg/mL | TGI (SF-268 CNS): 22.4 µg/mL | GI50 (PC-3 prostate): 3.46 µg/mL | TGI (PC-3 prostate): 16.8 µg/mL
